The target in one assay is SNF4 tumors. Briefly: PDO drug sensitivity testing of tyrosine kinase inhibitors. Type of assay: cell-based, human. As to conditions: for IC50: SNF4 tumors compared with other subtypes, PDO. The protocol: (§1) Briefly, the fresh breast cancer tissue is cut into small pieces using a sterile surgical knife. The tissue was digested and resuspended in 10 mL of TAC buffer, incubated for 3 minutes to remove red blood cells, and passed through a […] cell strainer (Corning). For passaging, 5 ml of harvesting solution (Trevigen, 3700-100-01) was used to digest the basement membrane extract (BME), which was incubated on ice for 1 hour. Subsequently, the organoids were centrifuged at 350 g for 5 minutes, washed in digestion buffer, and centrifuged. Next, 3 mL of TrypLE Express (Invitrogen) was added, and the organoids were incubated at room temperature for 3 minutes and then mechanically dissociated into small cell clusters using a pipette. The organoids were passaged every 2-3 weeks at a dilution ratio of 1:2-3.
(§2) Drug response testing of triple-negative breast cancer (TNBC) organoids was conducted according to the method of the published paper (Xiao Y, Ma D, Yang YS, Yang F, Ding JH, Gong Y, et al. Comprehensive metabolomics expands precision medicine for triple-negative breast cancer. CELL RES. 2022;32(5):477-90 doi 10.1038/s41422-022-00614-0.). Organoids without undergoing organoid drug treatment were harvested in good condition and digested into single cells. 25 microliters of organoid suspension was added to black cell-repellent surface of a 384-well plate with transparent bottoms (Greiner 781976-SIN) at 1 × 10^3 to 3 × 10^3 cells per well, and cultured for an additional 5-6 days prior to drug treatment. Organoids were co-cultured with the drug for 1 week and then tested for survival. According to the manufacturer's instructions, organoid cell survival rate was assessed by the CellTiter-Glo 3D cell survival assay (Promega, G9683).
Next, based on the identified key receptors, 12 tyrosine kinase inhibitors were selected to construct a "tyrosine kinase inhibitor combination," including tyrosine kinase inhibitors targeting the ErbB family (afatinib, lapatinib, pyrotinib), the PDGFR family (axitinib, sunitinib), the VEGFR family (foretinib, apatinib), the TAM receptor (sitravatinib), as well as some multi-target tyrosine kinase inhibitors (sorafenib, vandetanib, regorafenib, famitinib). The combination is used for PDO drug sensitivity testing to verify the tyrosine kinase inhibitor most sensitive to SNF4 tumors (FIG. 38). […] Combining the drug sensitivity results of the above 12 tyrosine kinase inhibitors and the targets of the above four drugs, VEGFR and PDGFR signaling were preliminarily identified as potential therapeutic vulnerabilities of SNF4 tumors.

The subject of assay [1] is signaling pathway activated by PDGF in SNF4 tumor. Briefly: PDGF-activated signaling pathway changes after tyrosine kinase inhibitor treatment. Type of assay: cell-based, human.
Assay [2] concerns SNF4 subtype cancer-associated fibroblasts (CAF). Description: Efficacy on patient-derived cancer cells co-cultured with fibroblasts. Type of assay: cell-based, human. The note with it: sorafenib (1 µM). How it is done: (F-G) The efficacy of sorafenib (1 µM) on patient-derived cancer cells co-cultured with fibroblasts. Scale bar: 100 micrometers. Cancer cells are treated with sorafenib three times. One representative experiment is shown. The experiment is repeated three times, and the results are similar.

In the next assay the test system is SNF3-PDO. Description: PDO drug response testing with CDK4/6 inhibitor and PARP inhibitor (CellTiter-Glo 3D cell survival assay). Type of assay: cell-based, human. As to conditions: for growth ability of SNF3-PDO: single drug; for PDO growth ability: SNF3 subtype and the non-SNF3 subtype (legend of FIGs. 31 and 32). The protocol:
as §1, §2
In order to gain an in-depth understanding of the biological characteristics of the SNF3 subtype, low-concentration 4-hydroxytamoxifen was used to induce PDO over an extended period to establish a model for studying acquired resistance to endocrine therapy (Xi Jin, Yi-Fan Zhou, Ding Ma, Shen Zhao, Cai-Jin Lin, Yi Xiao, et al. Integrative Molecular Classification of HR+/HER2- Breast Cancer Guides Precision Treatment. Nature Genetics under minor revision. 2023.02.26.).
In view of the high enrichment of SNF3 tumors in homologous recombination deficiency score, chromosomal instability, and cell cycle activity, the response of SNF3 PDOs to CDK4/6 inhibitors and PARP inhibitors was tested. […] In addition, regardless of BRCA mutation, the homologous recombination deficiency score of SNF3 tumors was much higher (FIG. 35). The above results indicated the therapeutic susceptibility of the SNF3 subtype to CDK4/6 inhibitors and PARP inhibitors; therefore, CDK4/6 inhibitors and PARP inhibitors or combinations thereof may be potential accurate treatment strategies for SNF3 tumors.

Another assay deals with four subtypes of PDOs. Description: PDO drug response testing of traditional endocrine therapies (CellTiter-Glo 3D cell survival assay). Type of assay: cell-based, human. As to conditions: compared among four subtypes of PDOs (n = 88). The protocol: as §1, §2
The sensitivity of four subtypes of PDOs (n = 88) to three traditional endocrine therapies (estrogen deprivation, 4-hydroxytamoxifen (4OHtam), and fulvestrant) was compared on a PDO drug testing platform. […] In order to investigate the potential mechanism of SNF1 tumor sensitivity to endocrine therapy, the endocrine therapy-related pathways in the multi-omics data from Fudan University Shanghai Cancer Center were analyzed. […] In addition, the expression of endocrine therapy resistance pathways was also compared among the four subtypes.
(In general: Cellular ATP, detected with luciferase, serves as a proxy for viable cell number.)

Assay [3] relates to advanced HR+/HER2- breast cancer. Briefly: Real-world retrospective clinical cohort of advanced HR+/HER2- breast cancer. Type of assay: in vivo, human. As to conditions: SNF3 and SNF4 subtypes; advanced cohort of FUSCC, n = 277; p = 0.033. The source says: Frequency tables and summary statistics were used to characterize data distribution. Wilcoxon test and Kruskal-Wallis test were used to compare continuous variables and categorical variables, and Pearson chi-square test and Fisher's exact test were used to compare unordered categorical variables. Survival curves were established using the Kaplan-Meier product-limit method and compared with the log-rank test to obtain RFS and PFS. RFS was defined as the time from diagnosis to the first recurrence or diagnosis of contralateral breast cancer. PFS was defined as the interval from the start of treatment to disease progression or death due to any cause (whichever occurs first), or to the time of the last PFS assessment for patients with progression-free survival. Univariate and multivariate Cox proportional hazards regression models were constructed to evaluate the hazard ratio (HR) and the corresponding 95% confidence interval (CI). All analyses were performed using R software package version 3.6.1 (https://cran.r-project.org/).
For deeper insights into the landscape of metastatic HR+/HER2- breast cancer, we constructed a real-world cohort of patients with advanced HR+/HER2- breast cancer from FUSCC and invited other three centers to participate in our real-world study. […] Their tumor progression were evaluated according to RECIST v1.1.

Consider `CCN(CC)CCN1CCc2[nH]c(/C=C3\C(=O)Nc4ccc(F)cc43)c(C)c2C1=O` [famitinib], for which the IC50 entry at SNF4 tumors is recorded as “lower than that of other subtypes”. Also, the “signaling pathway activated by PDGF” value in assay [1] is on record as “significantly downregulated”.
As to `CNC(=O)c1cc(Oc2ccc(NC(=O)Nc3ccc(Cl)c(C(F)(F)F)c3)cc2)ccn1` [sorafenib], the IC50 entry at SNF4 tumors was “lower than that of other subtypes”. Besides, the “signaling pathway activated by PDGF” value in assay [1] was “significantly downregulated”. In addition, the “sensitivity of SNF4 subtype cancer-associated fibroblasts (CAF)” value in assay [2] is recorded as “sensitive”.
In the case of 4-hydroxytamoxifen, the “sensitivity to endocrine therapy” value in the assay with SNF3-PDO (SNF3-PDO after long-term induction with low-concentration 4-hydroxytamoxifen, unlike other subtypes) is on record as “less sensitive to endocrine therapy”. Further, the survival rate result in the assay on four subtypes of PDOs (SNF1-PDO) is recorded as “lowest survival rate”; with four subtypes of PDOs (SNF4-PDO), “relatively higher survival rate”.
Consider `CCN1CCN(Cc2ccc(Nc3ncc(F)c(-c4cc(F)c5nc(C)n(C(C)C)c5c4)n3)nc2)CC1` [abemaciclib, N-[5-[(4-ethyl-1-piperazinyl)methyl]-2-pyridinyl]-5-fluoro-4-[4-fluoro-2-methyl-1-(1-methylethyl)-1H-benzimidazol-6-yl]-2-pyrimidinamine], for which, in the assay on SNF3-PDO, the “growth ability of SNF3-PDO” value was “significantly inhibited” and the PDO growth ability entry is given as “significantly inhibited”.
In the case of `CNC(=O)c1cc(Oc2ccc(NC(=O)Nc3ccc(Cl)c(C(F)(F)F)c3)c(F)c2)ccn1` [regorafenib], the IC50 result at SNF4 tumors was “lower than that of other subtypes”. Further, the “cell viability of SNF4 tumors” value in the assay on SNF4 tumors (after treatment, Wilcoxon test) was “significantly decreased”.
Regarding `C[C@]12CC[C@@H]3c4ccc(O)cc4C[C@@H](CCCCCCCCC[S+]([O-])CCCC(F)(F)C(F)(F)F)[C@H]3[C@@H]1CC[C@@H]2O` (some centres unmarked) [fulvestrant], the survival rate result is “lowest survival rate” with four subtypes of PDOs (SNF1-PDO) and “relatively higher survival rate” in the assay on four subtypes of PDOs (SNF4-PDO). Besides, the “progression-free survival (PFS)” value in assay [3] is recorded as “worse progression-free survival”.
With `O=C(c1cc(Cc2n[nH]c(=O)c3ccccc23)ccc1F)N1CCN(C(=O)C2CC2)CC1` [olaparib], in the assay on SNF3-PDO, the “growth ability of SNF3-PDO” value is “significantly inhibited” and the PDO growth ability result is listed as “significantly inhibited”.
